Results as given in ChEMBL document CHEMBL1201862, “PubChem BioAssay data set” (2004).
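Assay format: 96-well plates, 48-hour exposure. Abbreviation: GI50, concentration required for 50% inhibition of growth.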 Active and inactive are the calls of the source. Rule as the data show it: active = GI50 up to about 1.1 µM and inactive = higher.

Tests used:
Test in all cases: growth of human tumour cells (NCI), 48 h
OVCAR-8 = tested on: OVCAR-8
HCT-15 = tested on: HCT-15
OVCAR-4 = tested on: OVCAR-4
ACHN = tested on: ACHN
NCI-H23 = tested on: NCI-H23
IGROV-1 = tested on: IGROV-1
CAKI-1 = tested on: CAKI-1
UO-31 = tested on: UO-31
A549 = tested on: A549
SW-620 = tested on: SW-620
SF-539 = tested on: SF-539
HOP-62 = tested on: HOP-62
NCI-H460 = tested on: NCI-H460
CCRF-CEM = tested on: CCRF-CEM
HCT-116 = tested on: HCT-116
HOP-92 = tested on: HOP-92

| SMILES | GI50 (OVCAR-8) | GI50 (HCT-15) [µM] | GI50 (OVCAR-4) | GI50 (ACHN) | GI50 (NCI-H23) | GI50 (IGROV-1) | GI50 (CAKI-1) | GI50 (UO-31) | GI50 (A549) | GI50 (SW-620) | GI50 (SF-539) | GI50 (HOP-62) | GI50 (NCI-H460) | GI50 (CCRF-CEM) | GI50 (HCT-116) | GI50 (HOP-92) |
| --- | --- | --- | --- | --- | --- | --- | --- | --- | --- | --- | --- | --- | --- | --- | --- | --- |
| N=C(N)N/N=C/c1c[nH]c2ccccc12 | > 100 µM (inactive) | > 100 | > 100 µM (inactive) | > 100 µM (inactive) | > 100 µM (inactive) | > 100 µM (inactive) | > 100 µM (inactive) | > 100 µM (inactive) | > 100 µM (inactive) | > 100 µM (inactive) | > 100 µM (inactive) | > 100 µM (inactive) | > 100 µM (inactive) | > 100 µM (inactive) | – | – |
| Cc1ccc([S+](c2ccccc2)c2cc(C)ccc2C)cc1 (configuration not stated) | 4.59 µM (inactive) | – | 29.4 µM (inactive) | 11.2 µM (inactive) | – | 0.117 µM (active) | 26.7 µM (inactive) | > 100 µM (inactive) | 7.03 µM (inactive) | 5.64 µM (inactive) | 13.7 µM (inactive) | 15.1 µM (inactive) | 6.38 µM (inactive) | 0.438 µM (active) | 2.94 µM (inactive) | – |
| Clc1ccc(C2=Nc3ccccc3SC(c3cccs3)C2)cc1 (configuration not stated) | 16.2 µM (inactive) | 14 | 14 µM (inactive) | 15.3 µM (inactive) | 14.1 µM (inactive) | 14 µM (inactive) | 15.5 µM (inactive) | 13.6 µM (inactive) | 17.2 µM (inactive) | 13.1 µM (inactive) | 16.8 µM (inactive) | 18.2 µM (inactive) | 15 µM (inactive) | – | 7.67 µM (inactive) | – |
| [O-][S+]1Nc2c(Cl)cc(Cl)c3c(Cl)cc(Cl)c(c23)N1 | 32.4 µM (inactive) | 32.1 | 25.6 µM (inactive) | 27.7 µM (inactive) | 29.1 µM (inactive) | 58.5 µM (inactive) | 32.4 µM (inactive) | 51.8 µM (inactive) | 29.6 µM (inactive) | 37.2 µM (inactive) | 36.7 µM (inactive) | – | – | 31.6 µM (inactive) | 34.1 µM (inactive) | 21.3 µM (inactive) |
| CO[C@H](C(=O)O[C@H]1C(=O)N2CC[C@@H]3CCC[C@H]1C32C)c1ccccc1 (some centres not stated) | > 100 µM (inactive) | > 10 | > 100 µM (inactive) | > 100 µM (inactive) | > 100 µM (inactive) | > 100 µM (inactive) | > 100 µM (inactive) | > 100 µM (inactive) | > 100 µM (inactive) | > 100 µM (inactive) | > 100 µM (inactive) | > 100 µM (inactive) | > 100 µM (inactive) | > 100 µM (inactive) | > 100 µM (inactive) | – |
| O=c1c2cc(Br)ccc2n(C2OC(CO)C(O)C(O)C2O)c(=S)n1-c1ccccc1 (configuration not stated) | > 100 µM (inactive) | > 100 | > 100 µM (inactive) | > 100 µM (inactive) | > 100 µM (inactive) | > 100 µM (inactive) | – | > 100 µM (inactive) | > 100 µM (inactive) | > 100 µM (inactive) | > 100 µM (inactive) | > 100 µM (inactive) | > 100 µM (inactive) | – | > 100 µM (inactive) | 98.2 µM (inactive) |
| Cc1nc(-c2nc(C)c(C(=O)/C=C/c3ccc(N(C)C)cc3)s2)sc1C(=O)/C=C/c1ccc(N(C)C)cc1 | > 100 µM (inactive) | 37.8 | 46 µM (inactive) | > 100 µM (inactive) | > 100 µM (inactive) | 31 µM (inactive) | > 100 µM (inactive) | > 100 µM (inactive) | 44.2 µM (inactive) | 31.2 µM (inactive) | 41.7 µM (inactive) | > 100 µM (inactive) | > 100 µM (inactive) | > 100 µM (inactive) | 29.3 µM (inactive) | – |
| CCOC(=O)C1=C(C)NC(=O)NC1c1ccc(OC)cc1OC (configuration not stated) | > 100 µM (inactive) | > 100 | – | > 100 µM (inactive) | > 100 µM (inactive) | > 100 µM (inactive) | > 100 µM (inactive) | > 100 µM (inactive) | > 100 µM (inactive) | > 100 µM (inactive) | – | > 100 µM (inactive) | > 100 µM (inactive) | 84.5 µM (inactive) | > 100 µM (inactive) | > 100 µM (inactive) |
| CC1=C[C@H]2c3c([nH]c4ccccc34)C(c3c[nH]c4ccccc34)[C@H]2CC1 (some centres not stated) | 8.59 µM (inactive) | 5.41 | – | 10.2 µM (inactive) | 3.33 µM (inactive) | 7.96 µM (inactive) | 12.9 µM (inactive) | > 10 µM (inactive) | 10.1 µM (inactive) | 6.37 µM (inactive) | 12.9 µM (inactive) | – | 2.84 µM (inactive) | 3.36 µM (inactive) | 3.27 µM (inactive) | 0.536 µM (active) |
| CCCc1c2c([nH]c(=O)c1C)C(=O)c1[nH]c(=O)c(C)c(CCC)c1C2=O | 4.47 µM (inactive) | 11.2 | 12.2 µM (inactive) | 7.48 µM (inactive) | 23.2 µM (inactive) | 23.6 µM (inactive) | – | 56.4 µM (inactive) | 23.7 µM (inactive) | 4.78 µM (inactive) | > 100 µM (inactive) | > 100 µM (inactive) | 14.5 µM (inactive) | 21.7 µM (inactive) | 3.01 µM (inactive) | 41 µM (inactive) |
